Source: patent US20100197908A1 (Boehringer Ingelheim International GmbH, priority 2006, published 2010)
Counter-ions that a name gives are not always drawn.

What follows are molecules tested against T1, hMCH-1R (Homo sapiens, UniProt Q99705) (assay: MCH-1 receptor binding test (125I-MCH binding to membranes of hMCH-1R transfected CHO/Galpha16 cells)). Settings: membranes of CHO/Galpha16 cells stably transfected with human hMCH-1R, 100 pM 125I-MCH.
T1 construct: expressed in transfected cells; host or cells: CHO/Galpha16 cells (stably transfected), membranes
Protocol: After the incubation the reaction is filtered using a cell harvester through 0.5% PEI treated fibreglass filters (GF/B, Unifilter Packard). The membrane-bound radioactivity retained on the filter is then determined after the addition of scintillator substance (Packard Microscint 20) in a measuring device (TopCount of Packard). […] The analysis of the concentration binding curve is carried out on the assumption of one receptor binding site.

T1 sequence (Q99705 whole entry): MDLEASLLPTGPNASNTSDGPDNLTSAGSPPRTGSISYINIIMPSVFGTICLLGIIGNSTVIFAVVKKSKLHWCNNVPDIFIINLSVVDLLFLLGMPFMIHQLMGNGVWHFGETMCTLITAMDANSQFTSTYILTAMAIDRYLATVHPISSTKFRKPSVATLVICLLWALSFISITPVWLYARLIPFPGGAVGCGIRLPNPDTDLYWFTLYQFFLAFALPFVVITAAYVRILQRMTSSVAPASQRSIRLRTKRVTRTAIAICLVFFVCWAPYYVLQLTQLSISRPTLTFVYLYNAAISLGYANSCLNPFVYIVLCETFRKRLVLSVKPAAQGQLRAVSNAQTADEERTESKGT

Structure (SMILES) | IC50
c1ccc(COc2ccc(CCc3ccc(CN4CCOCC4)cc3)nn2)cc1 [Example 1.1, 4-{4-[2-(6-Benzyloxy-pyridazin-3-yl)-ethyl]benzyl}-morpholine] | 4 nM
c1ccc(COc2ccc(CCc3ccc(CN4CCCC4)cn3)nn2)cc1 [Example 4.1] | 16 nM
c1ccc(COc2ccc(CCc3ccc(CNCc4cccnc4)cn3)nn2)cc1 [Example 4.2] | 20 nM
CC1CCCCN1Cc1ccc(CCc2ccc(OCc3ccccc3)nn2)nc1 (centres unmarked) [Example 4.4] | 8 nM
COCCN(C)Cc1ccc(CCc2ccc(OCc3ccc(F)cc3)nn2)cc1 [Example 10.5] | 4 nM
Fc1ccccc1COc1ccc(CCc2ccc(CN3CCCC3)cc2)nn1 [Example 12.2, 3-(2-Fluoro-benzyloxy)-6-[2-(4-pyrrolidin-1-ylmethyl-phenyl)-ethyl]-pyridazine trifluoroacetate] | 13 nM
COC1CCN(Cc2ccc(C(=O)Cc3ccc(OCc4ccc(F)cc4)nn3)cc2)CC1 [Example 15.1, 2-[6-(4-Fluoro-benzyloxy)-pyridazin-3-yl]-1-[4-(4-methoxy-piperidin-1-ylmethyl)-phenyl]-ethanone] | 9 nM
CN(Cc1ccccc1)c1ccc(CCc2ccc(CN3CCCC3)cc2)nn1 [Example 16.2, Benzyl-methyl-{6-[2-(4-pyrrolidin-1-ylmethyl-phenyl)-ethyl]-pyridazin-3-yl}-amine] | 590 nM
OC1CCN(Cc2ccc(CCc3ccc(OCC4CCCCO4)nn3)cc2)CC1 (centres unmarked) [Example 22.2, 1-(4-{2-[6-(Tetrahydro-pyran-2-ylmethoxy)-pyridazin-3-yl]-ethyl}-benzyl)-piperidin-4-ol] | 136 nM
CC(=O)N1CCN(CCOc2ccc(CCc3ccc(OCc4ccccc4)nn3)nc2)CC1 [Example 29.10] | 19 nM
OC1CCN(CCc2ccc(CCc3ccc(OCc4ccccc4)nn3)nc2)CC1 [Example 31.10] | 4 nM
